Results published in US20230085307A1, “PYRIDAZINONE COMPOUND AND HERBICIDE” (NISSAN CHEMICAL CORPORATION, priority 2019, published 2023).

Legend:
barnyard grass [1] = assay: Test Example 3: herbicidal effect by foliage application, Wagner pot (Table 18, symbol H); type: in vivo, barnyard grass (Echinochloa crus-galli); settings: for herbicidal effect on H: barnyard grass: amount of applied herbicide 320 g/ha; for herbicidal effect on barnyard grass (H): 320 g/ha
Experimental: (§1) [Test Example 3] Herbicidal Effect Test by Foliage Application After alluvial soil was placed into 1/10000 are of Wagner pot, water was poured and mixed to form a submerged condition having a water depth of 0.1 cm to 0.5 cm. Seeds of barnyard grass, Chinese sprangletop, rice flat sedge, and rice were sowed and the pot was placed in a greenhouse at 25° C. to 30° C. for growth of the plants. After 14-day growth of the plants, the emulsion agent of the compound of the present invention prepared according to Formulation Example 2 was diluted with water so as to achieve a predetermined herbicide amount, and the diluted emulsion agent was uniformly applied to a foliage part with a small-sized spray. Three weeks after the herbicide application, the effect of the herbicide on each plant was evaluated according to the criteria of Test Example 1.

rice flat sedge = assay: Test Example 3: herbicidal effect by foliage application, Wagner pot (Table 18, symbol E); type: in vivo, rice flat sedge (Cyperus iria); settings: for herbicidal effect on E: rice flat sedge: amount of applied herbicide 320 g/ha; for herbicidal effect on rice flat sedge (E): 320 g/ha
Experimental: as §1

Chinese sprangletop = assay: Test Example 3: herbicidal effect by foliage application, Wagner pot (Table 18, symbol D); type: in vivo, chinese sprangletop (Leptochloa chinensis); settings: for herbicidal effect on D: Chinese sprangletop: amount of applied herbicide 320 g/ha; for herbicidal effect on Chinese sprangletop (D): 320 g/ha
Experimental: as §1

wild oat = assay: Test Example 5: herbicidal effect by foliage application, plastic box (Table 20, symbol I); type: in vivo, wild oat (Avena fatua); settings: foliage application, 320 g/ha
Text: (§2) [Test Example 5] Herbicidal Effect Test by Foliage Application
(§3) Sterilized diluvial soil was placed in a plastic box having a length of 21 cm, a width of 13 cm, and a depth of 7 cm. The seeds of each of southern crabgrass, green foxtail, barnyard grass, wild oat, blackgrass, Italian ryegrass, windgrass, velvetleaf, redroot pigweed, lambsquarters, chickweed, false cleavers, persian speedwell, corn, soybean, rice, wheat, beet, and rapeseed were sowed in a spot-like manner and covered with the soil having a thickness of about 1.5 cm. Thereafter, the plants were grown in a greenhouse at 25° C. to 30° C. After 14-day growth of the plants, the emulsion agent of the compound of the present invention prepared according to Formulation Example 2 was diluted with water so as to achieve a predetermined herbicide amount, and the diluted emulsion agent was uniformly applied to a foliage part with a small-sized spray. Three weeks after the herbicide application, the effect of the herbicide on each plant was evaluated according to the criteria of Test Example 1.

southern crabgrass = assay: Test Example 5: herbicidal effect by foliage application, plastic box (Table 20, symbol F); type: in vivo, southern crabgrass (Digitaria ciliaris); settings: foliage application, 320 g/ha
Text: as §2, §3

Italian ryegrass = assay: Test Example 5: herbicidal effect by foliage application, plastic box (Table 20, symbol K); type: in vivo, Italian ryegrass (Lolium multiflorum); settings: foliage application, 320 g/ha
Text: as §2, §3

green foxtail = assay: Test Example 5: herbicidal effect by foliage application, plastic box (Table 20, symbol G); type: in vivo, green foxtail (Setaria viridis); settings: foliage application, 320 g/ha
Text: as §2, §3

barnyard grass [2] = assay: Test Example 5: herbicidal effect by foliage application, plastic box (Table 20, symbol H); type: in vivo, barnyard grass (Echinochloa crus-galli); settings: foliage application, 320 g/ha
Text: as §2, §3

velvetleaf = assay: Test Example 5: herbicidal effect by foliage application, plastic box (Table 20, symbol M); type: in vivo, velvetleaf (Abutilon theophrasti); settings: foliage application, 320 g/ha
Text: as §2, §3

windgrass = assay: Test Example 5: herbicidal effect by foliage application, plastic box (Table 20, symbol L); type: in vivo, windgrass (Apera spica-venti); settings: foliage application, 320 g/ha
Text: as §2, §3

lambsquarters = assay: Test Example 5: herbicidal effect by foliage application, plastic box (Table 20, symbol O); type: in vivo, lambsquarters (Chenopodium album); settings: foliage application, 320 g/ha
Text: as §2, §3

blackgrass = assay: Test Example 5: herbicidal effect by foliage application, plastic box (Table 20, symbol J); type: in vivo, blackgrass (Alopecurus myosuroides); settings: foliage application, 320 g/ha
Text: as §2, §3

persian speedwell = assay: Test Example 5: herbicidal effect by foliage application, plastic box (Table 20, symbol R); type: in vivo, Persian speedwell (Veronica persica); settings: foliage application, 320 g/ha
Text: as §2, §3

## COc1c(C)nn(C)c(=O)c1-c1c(-c2ccnc(F)c2)sc2ccc(F)cc12 [2-427]
Barnyard grass [1]
  herbicidal effect on H: barnyard grass: 3 (Herbicidal rate of 40% or more and less than 70%)
Rice flat sedge
  herbicidal effect on E: rice flat sedge: 2 (Herbicidal rate of 20% or more and less than 40%)
Chinese sprangletop
  herbicidal effect on D: Chinese sprangletop: 0 (Herbicidal rate of 5% or less (almost no effect))

## COc1ccccc1-c1oc2ccc(Cl)cc2c1-c1c(O)c(C)nn(C)c1=O [9-001]
Wild oat; three weeks after application
  herbicidal effect on wild oat (I): 0 (Herbicidal rate of 5% or less (almost no effect))
Southern crabgrass; three weeks after application
  herbicidal effect on southern crabgrass (F): 0 (Herbicidal rate of 5% or less (almost no effect))
Italian ryegrass; three weeks after application
  herbicidal effect on Italian ryegrass (K): 0 (Herbicidal rate of 5% or less (almost no effect))
Green foxtail; three weeks after application
  herbicidal effect on green foxtail (G): 0 (Herbicidal rate of 5% or less (almost no effect))
Barnyard grass [2]; three weeks after application
  herbicidal effect on barnyard grass (H): 0 (Herbicidal rate of 5% or less (almost no effect))
velvetleaf; three weeks after application
  herbicidal effect on velvetleaf (M): 2 (Herbicidal rate of 20% or more and less than 40%)
windgrass; three weeks after application
  herbicidal effect on windgrass (L): 0 (Herbicidal rate of 5% or less (almost no effect))
lambsquarters; three weeks after application
  herbicidal effect on lambsquarters (O): 3 (Herbicidal rate of 40% or more and less than 70%)
blackgrass; three weeks after application
  herbicidal effect on blackgrass (J): 0 (Herbicidal rate of 5% or less (almost no effect))
Persian speedwell; three weeks after application
  herbicidal effect on persian speedwell (R): 0 (Herbicidal rate of 5% or less (almost no effect))

## Cc1nn(C)c(=O)c(-c2c(-c3ccc(C(F)(F)F)cc3Cl)sc3ccc(F)cc23)c1O [2-356]
Barnyard grass [1]
  herbicidal effect on H: barnyard grass: 4 (Herbicidal rate of 70% or more and less than 90%)
Rice flat sedge
  herbicidal effect on E: rice flat sedge: 4 (Herbicidal rate of 70% or more and less than 90%)
Chinese sprangletop
  herbicidal effect on D: Chinese sprangletop: 4 (Herbicidal rate of 70% or more and less than 90%)

## Cc1nn(C)c(=O)c(-c2c(-c3cnc(Cl)s3)sc3ccc(F)cc23)c1O [2-394]
Barnyard grass [1]
  herbicidal effect on H: barnyard grass: 5 (Herbicidal rate of 90% or more (almost completely withered))
Rice flat sedge
  herbicidal effect on E: rice flat sedge: 5 (Herbicidal rate of 90% or more (almost completely withered))
Chinese sprangletop
  herbicidal effect on D: Chinese sprangletop: 3 (Herbicidal rate of 40% or more and less than 70%)

## CCCC(=O)Oc1c(C)nn(C)c(=O)c1-c1c(-c2ccccc2O)sc2c(Cl)cccc12 [4-080]
Barnyard grass [1]
  herbicidal effect on barnyard grass (H): 2 (Herbicidal rate of 20% or more and less than 40%)
Rice flat sedge
  herbicidal effect on rice flat sedge (E): 4 (Herbicidal rate of 70% or more and less than 90%)
Chinese sprangletop
  herbicidal effect on Chinese sprangletop (D): 3 (Herbicidal rate of 40% or more and less than 70%)

## COc1cc2sc(-c3ccc(C#N)cc3)c(-c3c(O)c(C)nn(C)c3=O)c2cc1Cl [5-074]
Barnyard grass [1]
  herbicidal effect on barnyard grass (H): 3 (Herbicidal rate of 40% or more and less than 70%)
Rice flat sedge
  herbicidal effect on rice flat sedge (E): 3 (Herbicidal rate of 40% or more and less than 70%)
Chinese sprangletop
  herbicidal effect on Chinese sprangletop (D): 5 (Herbicidal rate of 90% or more (almost completely withered))

## CCCC(=O)Oc1c(OC)nn(C)c(=O)c1-c1c(-c2cc3ccccc3o2)sc2ccccc12 [1-195]
Wild oat; 3 weeks after application
  effect on wild oat (I): 0 (Herbicidal rate of 5% or less (almost no effect))
Southern crabgrass; 3 weeks after application
  effect on southern crabgrass (F): 0 (Herbicidal rate of 5% or less (almost no effect))
Italian ryegrass; 3 weeks after application
  effect on Italian ryegrass (K): 0 (Herbicidal rate of 5% or less (almost no effect))
Green foxtail; 3 weeks after application
  effect on green foxtail (G): 0 (Herbicidal rate of 5% or less (almost no effect))
Barnyard grass [2]; 3 weeks after application
  effect on barnyard grass (H): 0 (Herbicidal rate of 5% or less (almost no effect))
velvetleaf; 3 weeks after application
  effect on velvetleaf (M): 0 (Herbicidal rate of 5% or less (almost no effect))
windgrass; 3 weeks after application
  effect on windgrass (L): 0 (Herbicidal rate of 5% or less (almost no effect))
lambsquarters; 3 weeks after application
  effect on lambsquarters (O): 0 (Herbicidal rate of 5% or less (almost no effect))
blackgrass; 3 weeks after application
  effect on blackgrass (J): 0 (Herbicidal rate of 5% or less (almost no effect))
Persian speedwell; 3 weeks after application
  effect on persian speedwell (R): 0 (Herbicidal rate of 5% or less (almost no effect))
